According to PubChem BioAssay (NCI):
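Interpolation was linear, between the two tested concentrations surrounding the appropriate level; five concentrations were tested over 48 hours in 96-well plates. The concentration for 50% growth inhibition is given as GI50. TGI: total growth inhibition.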

Experiments:
Assay in all cases: NCI anticancer screen, dose series, 48 h
[1] = tested on: HT29 colon
[2] = tested on: K-562 leukemia
[3] = tested on: KM12 colon
[4] = tested on: NCI-H522 lung
[5] = tested on: OVCAR-3 ovarian
[6] = tested on: SK-OV-3 ovarian
[7] = tested on: SNB-75 CNS
[8] = tested on: TK-10 renal
[9] = tested on: U251 CNS
[10] = tested on: UACC-62 melanoma

| SMILES | TGI [1] [µM] | TGI [2] [µM] | TGI [3] [µM] | TGI [4] [µM] | TGI [5] [µM] | TGI [6] [µM] | TGI [7] [µM] | TGI [8] [µM] | TGI [9] [µM] | TGI [10] [µM] | GI50 [1] [µM] | GI50 [2] [µM] | GI50 [3] [µM] | GI50 [4] [µM] | GI50 [5] [µM] | GI50 [6] [µM] | GI50 [7] [µM] | GI50 [8] [µM] | GI50 [9] [µM] | GI50 [10] [µM] |
| --- | --- | --- | --- | --- | --- | --- | --- | --- | --- | --- | --- | --- | --- | --- | --- | --- | --- | --- | --- | --- |
| Cc1csc(CCC(N)C(=O)O)n1 (stereo not given) | > 100 | > 100 | > 100 | > 100 | > 100 | > 100 | > 100 | > 100 | > 100 | > 100 |  |  |  |  |  |  |  |  |  |  |
| CN(C)CCNC(=O)c1cccc2cc3ccc4ccccc4c3nc12 | 0.701 | > 100 | 1.2 | 0.28 | 0.738 | 0.679 | 0.399 | 0.904 | 0.663 | 0.23 |  |  |  |  |  |  |  |  |  |  |
| Cc1cc2c(cc1C)[n+](=O)c(C(=O)/C=C/c1ccccc1[N+](=O)[O-])c(C)n2[O-] | > 100 | > 100 | > 100 | 57.6 | > 97 | > 68.6 | 41.1 | 69.7 | 64.8 | 75.3 |  |  |  |  |  |  |  |  |  |  |
| C=CC[PH+](c1ccccc1)c1ccccc1.C=CC[PH+](c1ccccc1)c1ccccc1.[Pt+2].[S-]c1ncccn1.[S-]c1ncccn1 | > 100 | > 100 | > 100 | 5.78 | 9.49 | > 100 | > 100 | 46.2 | > 100 | 24.8 | 13.5 | 2.99 | 28.4 | 2.17 | 2.88 | > 100 | 8.25 | 5.8 | 23.4 | 8.06 |
| COc1cc2c3c(n(CCCN4CCSCC4)c(=O)c2cc1OC)-c1cc2c(cc1C3=O)OCO2 | > 100 | 47.8 | > 100 | 65.4 | 97.1 | > 100 | 27.5 | 82.9 | > 100 | > 100 | > 100 | 20.2 | > 100 | 19.9 | 35 | 88.1 | 12.9 | 27.2 | > 100 | 37.5 |
| Cc1ccccc1CNc1c2ccccc2nc2ccccc12 | 10 | 11.4 | 10.1 | 4.32 | 5.93 | 9.91 | 8.36 | 11.7 | 11.4 | 4.28 | 1.97 | 2.32 | 2.95 | 1.61 | 2.39 | 2.62 | 1.7 | 2.78 | 2.91 | 1.83 |
| O=C(Nc1ccc(Cl)c(C(F)(F)F)c1)C(=O)c1c(O)c2ccccc2oc1=O | > 100 | > 100 | > 100 | > 100 | > 100 | > 100 | > 100 | > 100 | > 100 | > 100 |  |  |  |  |  |  |  |  |  |  |
| Cc1c(C)c2ccc(OC(C)C(=O)O)cc2oc1=O (stereo not given) | > 100 | > 100 | > 100 | > 100 | > 100 | > 100 | > 100 | > 100 | > 100 | > 100 |  |  |  |  |  |  |  |  |  |  |
